pEC50: −log10 of the molar value.
biological target: T1, human thyroid receptor beta ligand-binding domain (LBD) (Homo sapiens, UniProt P10828); experiment: THR Biochemical Assay (Assay 1): TR-FRET thyroid receptor beta coactivator assay; conditions: GST-tagged thyroid receptor beta LBD 1 nM, fluorescein SRC2-2 coactivator peptide 200 nM, 1 hr at rt, TR-FRET ratio 520:495; read-out: Assay 1 (EC50, THR-beta agonist)
T1 construct: Thyroid receptor beta LBD was added to the plate at a final concentration of 1 nM; purchased Invitrogen
T1 sequence (P10828 217-461 limits assumed): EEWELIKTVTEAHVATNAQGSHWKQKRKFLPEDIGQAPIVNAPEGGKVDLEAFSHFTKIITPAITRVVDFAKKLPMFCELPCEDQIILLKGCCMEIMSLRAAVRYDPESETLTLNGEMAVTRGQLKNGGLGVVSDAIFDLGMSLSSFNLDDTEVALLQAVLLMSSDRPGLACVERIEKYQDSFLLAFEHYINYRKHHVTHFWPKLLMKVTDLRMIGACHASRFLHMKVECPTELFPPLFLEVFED
Text: THR Biochemical Assay (Assay 1)
The TR-FRET thyroid receptor beta coactivator assay was used with slight, optimized modifications of the manufacturer's protocol (Invitrogen). The assay uses a terbium-labeled anti-GST antibody, a glutathione-S-transferase (GST) tagged human thyroid receptor, beta or alpha, ligand-binding domain (LBD), and a fluorescein labeled SRC2-2 coactivator peptide. The antibody interacts with the LBD, where the agonist also binds, resulting in increased affinity for the SRC2-2 coactivator peptide causing energy transfer […] the acceptor fluorophore and a FRET emission shift from 495 to 520 nm. The energy transfer was detected as an increase in the fluorescence emission of the fluorescein acceptor, and a decrease in the fluorescence emission of the terbium donor. The assay was performed in a 384-well black plate in a final volume of 20 μL. Serial dilution of various test agonists was performed in DMSO (1% final DMSO concentration) and added to the test plate. Thyroid receptor beta LBD was added to the plate at a final concentration of 1 nM, followed by the mixture of the fluorescein labeled SRC2-2 coactivator peptide, and the terbium-labeled anti-GST antibody at final concentrations of 200 nM and 2 nM respectively. The assay was incubated for 1 hr at rt protected from light. The TR-FRET was then measured on a Victor multilabel reader (Perkin Elmer) using an excitation wavelength of 340 nm with emission filters of 495 nm and 520 nm. The assay was quantified by expressing a ratio (520:495) of the intensities, and the resulting activation curves; EC50 values were generated using a sigmoidal dose response (variable slope) equation in GraphPad™ Prism 8.0.

Row | SMILES | pEC50
1 | Nc1nn(-c2cc(Cl)c(Oc3ccc4c(c3)C3(CC(F)(F)C3)C(=O)N4)c(Cl)c2)c(=O)[nH]c1=O [Compound 11, 6-amino-2-(3,5-dichloro-4-((3,3-difluoro-2′-oxospiro[cyclobutane-1,3′-indolin]-5′-yl)oxy)phenyl)-1,2,4-triazine-3,5(2H,4H)-dione] | 6.60 to 7.30
2 | Cc1cc(-n2nc(N)c(=O)[nH]c2=O)cc(C)c1Cc1ccc2c(n1)C(C)(C)C(=O)N2 [Compound 12, 6-amino-2-[4-({3,3-dimethyl-2-oxo-1H-pyrrolo[3,2-b]pyridin-5-yl}methyl)-3,5-dimethylphenyl]-4H-1,2,4-triazine-3,5-dione] | 6.60 to 7.30
3 | O=C(O)C(=O)Nc1cc(Cl)c(Oc2ccc3c(c2)C2(CCC2)C(=O)N3)c(Cl)c1 [Compound 13, 2-((3,5-dichloro-4-((2′-oxospiro[cyclobutane-1,3′-indolin]-5′-yl)oxy)phenyl)amino)-2-oxoacetic acid] | > 7.30
4 | O=C(Nc1cc(Cl)c(Oc2ccc3c(c2)C2(CCC2)C(=O)N3)c(Cl)c1)c1noc(=O)[nH]1 [Compound 14, N-(3,5-dichloro-4-((2′-oxospiro[cyclobutane-1,3′-indolin]-5′-yl)oxy)phenyl)-5-oxo-4,5-dihydro-1,2,4-oxadiazole-3-carboxamide] | > 7.30
5 | O=C1Nc2ccc(Oc3c(Cl)cc(-c4n[nH]c(=O)[nH]c4=O)cc3Cl)cc2C12CCC2 [Compound 15, 6-(3,5-dichloro-4-((2′-oxospiro[cyclobutane-1,3′-indolin]-5′-yl)oxy)phenyl)-1,2,4-triazine-3,5(2H,4H)-dione] | > 7.30
6 | Cn1nc(-c2cc(Cl)c(Oc3ccc4c(c3)C3(CCC3)C(=O)N4)c(Cl)c2)c(=O)[nH]c1=O [Compound 16, 6-(3,5-dichloro-4-((2′-oxospiro[cyclobutane-1,3′-indolin]-5′-yl)oxy)phenyl)-2-methyl-1,2,4-triazine-3,5(2H,4H)-dione] | > 7.30
7 | Nc1nn(-c2cc(Cl)c(Oc3ccc4c(c3F)C3(CCC3)C(=O)N4)c(Cl)c2)c(=O)[nH]c1=O [Compound 17, 6-amino-2-(3,5-dichloro-4-((4′-fluoro-2′-oxospiro[cyclobutane-1,3′-indolin]-5′-yl)oxy)phenyl)-1,2,4-triazine-3,5(2H,4H)-dione] | > 7.30
8 | Cc1c(Oc2c(Cl)cc(-n3nc(N)c(=O)[nH]c3=O)cc2Cl)ccc2c1C1(CCC1)C(=O)N2 [Compound 18, 6-amino-2-(3,5-dichloro-4-((4′-methyl-2′-oxospiro[cyclobutane-1,3′-indolin]-5′-yl)oxy)phenyl)-1,2,4-triazine-3,5(2H,4H)-dione] | > 7.30
9 | Cc1cc2c(cc1Oc1c(Cl)cc(-n3nc(N)c(=O)[nH]c3=O)cc1Cl)C1(CCC1)C(=O)N2 [Compound 19, 6-amino-2-(3,5-dichloro-4-((6′-methyl-2′-oxospiro[cyclobutane-1,3′-indolin]-5′-yl)oxy)phenyl)-1,2,4-triazine-3,5(2H,4H)-dione] | < 4.60
10 | Cc1cc(OCC(=O)O)c(C)c(C)c1Cc1ccc2c(c1)C1(CC1)C(=O)N2 [Compound 20, 2-(2,3,5-trimethyl-4-((2′-oxospiro[cyclopropane-1,3′-indolin]-5′-yl)methyl)phenoxy)acetic acid] | > 7.30
11 | Nc1nn(-c2cc(Cl)c(Oc3cc(F)c4c(c3)C3(CCC3)C(=O)N4)c(Cl)c2)c(=O)[nH]c1=O [Compound 21, 6-amino-2-(3,5-dichloro-4-((7′-fluoro-2′-oxospiro[cyclobutane-1,3′-indolin]-5′-yl)oxy)phenyl)-1,2,4-triazine-3,5(2H,4H)-dione] | > 7.30
12 | O=C(Nc1cc(Cl)c(Oc2ccc3c(c2)C2(CC2)C(=O)N3)c(Cl)c1)c1noc(=O)[nH]1 [Compound 22, N-(3,5-dichloro-4-((2′-oxospiro[cyclopropane-1,3′-indolin]-5′-yl)oxy)phenyl)-5-oxo-4,5-dihydro-1,2,4-oxadiazole-3-carboxamide] | > 7.30
13 | Cc1c(Oc2c(Cl)cc(NC(=O)c3noc(=O)[nH]3)cc2Cl)ccc2c1C1(CC1)C(=O)N2 [Compound 23, N-(3,5-dichloro-4-((4′-methyl-2′-oxospiro[cyclopropane-1,3′-indolin]-5′-yl)oxy)phenyl)-5-oxo-4,5-dihydro-1,2,4-oxadiazole-3-carboxamide] | > 7.30

The next lines start with the values.

Row | pEC50 | SMILES
14 | > 7.30 | Cc1cc(-n2nc(N)c(=O)[nH]c2=O)cc(C)c1Oc1ccc2c(c1)C1(CCC1)C(=O)N2 [Compound 24, 6-amino-2-(3,5-dimethyl-4-((2′-oxospiro[cyclobutane-1,3′-indolin]-5′-yl)oxy)phenyl)-1,2,4-triazine-3,5(2H,4H)-dione]
15 | > 7.30 | Cc1cc(NC(=O)c2noc(=O)[nH]2)cc(C)c1Oc1ccc2c(c1)C1(CCC1)C(=O)N2 [Compound 25, N-(3,5-dimethyl-4-((2′-oxospiro[cyclobutane-1,3′-indolin]-5′-yl)oxy)phenyl)-5-oxo-4,5-dihydro-1,2,4-oxadiazole-3-carboxamide]
16 | < 4.60 | CN1C(=O)C2(CC2)c2cc(Oc3c(Cl)cc(-n4nc(N)c(=O)[nH]c4=O)cc3Cl)ccc21 [Compound 26, 6-amino-2-(3,5-dichloro-4-((1′-methyl-2′-oxospiro[cyclopropane-1,3′-indolin]-5′-yl)oxy)phenyl)-1,2,4-triazine-3,5(2H,4H)-dione]
17 | > 7.30 | Cc1cc(Oc2c(Cl)cc(-n3nc(N)c(=O)[nH]c3=O)cc2Cl)cc2c1NC(=O)C21CCC1 [Compound 27, 6-amino-2-(3,5-dichloro-4-((7′-methyl-2′-oxospiro[cyclobutane-1,3′-indolin]-5′-yl)oxy)phenyl)-1,2,4-triazine-3,5(2H,4H)-dione]
18 | > 7.30 | Cc1cc(-n2nc(N)c(=O)[nH]c2=O)cc(C)c1Oc1ccc2c(c1)C1(CCCC1)C(=O)N2 [Compound 28, 6-amino-2-(3,5-dimethyl-4-((2′-oxospiro[cyclopentane-1,3′-indolin]-5′-yl)oxy)phenyl)-1,2,4-triazine-3,5(2H,4H)-dione]
19 | > 7.30 | O=C(Nc1cc(Cl)c(Oc2ccc3c(c2Cl)C2(CC2)C(=O)N3)c(Cl)c1)c1noc(=O)[nH]1 [Compound 29, N-(3,5-dichloro-4-((4′-chloro-2′-oxospiro[cyclopropane-1,3′-indolin]-5′-yl)oxy)phenyl)-5-oxo-4,5-dihydro-1,2,4-oxadiazole-3-carboxamide]
20 | > 7.30 | Nc1nn(-c2cc(Cl)c(Oc3ccc4c(c3Cl)C3(CC3)C(=O)N4)c(Cl)c2)c(=O)[nH]c1=O [Compound 30, 6-amino-2-(3,5-dichloro-4-((4′-chloro-2′-oxospiro[cyclopropane-1,3′-indolin]-5′-yl)oxy)phenyl)-1,2,4-triazine-3,5(2H,4H)-dione]
21 | > 7.30 | O=C1Nc2ccc(Oc3c(Cl)cc(-n4ncc(=O)[nH]c4=O)cc3Cl)c(Cl)c2C12CC2 [Compound 31, 2-(3,5-dichloro-4-((4′-chloro-2′-oxospiro[cyclopropane-1,3′-indolin]-5′-yl)oxy)phenyl)-1,2,4-triazine-3,5(2H,4H)-dione]
22 | > 7.30 | CC1CC12C(=O)Nc1ccc(Oc3c(Cl)cc(-n4nc(N)c(=O)[nH]c4=O)cc3Cl)cc12 (centres unmarked) [Compound 33, 6-amino-2-(3,5-dichloro-4-((2-methyl-2′-oxospiro[cyclopropane-1,3′-indolin]-5′-yl)oxy)phenyl)-1,2,4-triazine-3,5(2H,4H)-dione]
23 | > 7.30 | O=C(O)C(=O)Nc1cc(Cl)c(Oc2ccc3c(c2)C(F)(F)C(=O)N3)c(Cl)c1 [Compound 36, 2-((3,5-dichloro-4-((3,3-difluoro-2-oxoindolin-5-yl)oxy)phenyl)amino)-2-oxoacetic acid]
24 | > 7.30 | Cc1c(Oc2c(Cl)cc(-c3nn(C)c(=O)[nH]c3=O)cc2Cl)ccc2c1C1(CC1)C(=O)N2 [Compound 37, 6-(3,5-dichloro-4-((4′-methyl-2′-oxospiro[cyclopropane-1,3′-indolin]-5′-yl)oxy)phenyl)-2-methyl-1,2,4-triazine-3,5(2H,4H)-dione]
25 | > 7.30 | Cc1c(Oc2c(Cl)cc(-n3nc(N)c(=O)[nH]c3=O)cc2Cl)ccc2c1C1(CC1)C(=O)N2 [Compound 38, 6-amino-2-(3,5-dichloro-4-((4′-methyl-2′-oxospiro[cyclopropane-1,3′-indolin]-5′-yl)oxy)phenyl)-1,2,4-triazine-3,5(2H,4H)-dione]
26 | > 7.30 | Cc1cc(NC(=O)c2noc(=O)[nH]2)cc(C)c1Oc1ccc2c(c1)C1(CC1)C(=O)N2 [Compound 39, N-(3,5-dimethyl-4-((2′-oxospiro[cyclopropane-1,3′-indolin]-5′-yl)oxy)phenyl)-5-oxo-4,5-dihydro-1,2,4-oxadiazole-3-carboxamide]

— patent US11793815B2, “Oxindoles and methods of use thereof” (ALIGOS THERAPEUTICS, INC., priority 2020, dated 2023)
